According to patent US8067189B2, “Methods for determining sensitivity to vascular endothelial growth factor receptor-2 modulators by measuring the level of collagen type IV” (Bristol-Myers Squibb Company, priority 2005, dated 2011):

How the values were obtained:
[1] = test system: Collagen type IV (COL4A1); test: Immunohistochemistry of xenograft tumors; format: in vivo, mouse; settings: treated xenograft tumors relative to un-treated tumors
Description: (§1) Tumors were propagated in nude mice as subcutaneous (sc) transplants using L2987 and HCT-116 cancer cell lines. Tumor passage occurred approximately every two to four weeks. Tumors were then allowed to grow to the pre-determined size window (100-200 mm^3, tumors outside the range were excluded) and animals were evenly distributed to various treatment and control groups. Animals were treated with the example VEGFR-2 inhibitor (100 mg/kg 1 qd×14 days). Treated animals were checked daily for treatment related toxicity/mortality. Each group of animals was weighed before the initiation of treatment (Wt1) and then again following the last treatment dose (Wt2). The difference in body weight (Wt2−Wt1) provided a measure of treatment-related toxicity. Tumor response was determined by measurement of tumors with a caliper twice a week, until the tumors reached a predetermined target size. Animals that were distributed to various treatment and control groups during the study were eventually sacrificed to obtain tumor and blood samples for genomic and protein analysis.
(§2) Tissue specimens collected for IHC were fixed by using 10% formalin. After fixation, the chemical fixative was discarded and the specimens were submerged in 70% ethanol before being embedded in paraffin blocks. Five micron tissue sections were cut from each block and placed on positively charged microscope slides. The tissue slides were de-paraffined by immersing in xylene. The slides were re-hydrated in 100% ethanol, 95% ethanol, and 70% ethanol. After re-hydration, the slides were washed several times with deionized water at room temperature. Multiple antigen retrieval conditions (Citra, Citra Plus, and AR10) were tested by use of the BioGenex EZ-retriever microwave to determine the best conditions. Staining optimization was performed in an automated BioGenex i6000 IHC system for each of the candidate marker antibodies independently. Both treated and un-treated xenografts were stained in the same run to minimize slide to slide variations. […]

[2] = test system: angiotensin receptor-like 1 (AGTRL1); test: Immunohistochemistry of xenograft tumors; format: in vivo, mouse; settings: treated xenograft tumors relative to un-treated tumors
Description: as §1, §2

[3] = test system: complement component 1, q subcomponent, receptor 1 (C1qR1); test: Immunohistochemistry of xenograft tumors; format: in vivo, mouse; settings: treated xenograft tumors relative to un-treated tumors
Description: as §1, §2

Collagen type IV = Collagen type IV ELISA of blood (plasma) from cancer patients, clinical study CA182-002; format: in vivo, human
Description: Blood samples (plasma) for ELISA analysis were obtained from Bristol-Myers Squibb Co. sponsored clinical study CA182-002, which is a phase I dose escalation study to determine the safety, pharmacokinetic, and pharmacodynamics of the example VEGFR-2 inhibitor in patients with advanced or metastatic solid tumors. Blood samples were drawn from patients at screening, pre-dose, and post-dose at 4 hours, Day 1, Day 8, Day 26, and end of treatment. Approximately 60 ml of blood was collected for the protocol specific sampling. Detailed instructions regarding the collection, processing, labeling, handling, storage, and shipment of the specimens were provided in the CA182-002 Laboratory Manual.
An ELISA method for the detection and measurement of Collagen Type IV and VE-Cadherin on human plasma or any biological sample where the proteins must be detected and measured is described. For collagen type IV ELISA, the kit was provided by Kamiya biomedical company (cat no. KT-035) and the principle method of the assay, a solid phase one-step sandwich ELISA, was as follows. Collagen Type IV in the sample was bound simultaneously by a solid phase monoclonal antibody and a monoclonal antibody-enzyme conjugate, each directed at a different antigenic site. […] After removing unbound enzyme-labeled antibody and samples, the plate was incubated with the enzyme substrate 3,3′,5,5′-tetramethylhylbenzidine (TMB). The resultant color development was directly proportional to the amount of collagen IV in the sample. The reaction was terminated by addition of acid and absorbance was measured at 450 nm. A standard curve was prepared from collagen type IV standard dilutions and collagen type IV samples concentration determined. For VE-Cadherin ELISA, the kit provided by Bender Medsystems (cat no. BMS253) was used and the principle method of the assay was as follows. An anti-VE-cadherin coating antibody was adsorbed onto the microwells. VE-cadherin present in the sample bound to antibodies adsorbed to the microwells; a biotin conjugated anti-VE-cadherin antibody was added and bound to VE-cadherin captured by the first antibody. Following incubation, unbound biotin conjugated anti-VE-cadherin was removed during a wash step. Streptavidin-HRP was added and bound to the biotin conjugated anti-VE-cadherin. Following incubation, unbound streptavidin-HRP was removed during a wash step and substrate solution reactive with HRP was added to the wells. A colored product was formed in proportion to the amount of VE-cadherin present in the sample. The reaction was terminated by addition of acid and absorbance was measured at 450 nm. A standard curve was prepared from VE-cadherin standard dilutions and VE-cadherin samples concentration determined.
Based on the pre-clinical studies, the Collagen type IV ELISA kit was examined as a potential molecular assay to monitor response and validate its expression on specimens obtained from cancer patients who received the example VEGFR-2 inhibitor. Biological samples from twelve cancer patients treated with the example VEGFR-2 inhibitor in protocol CA182002, which is a single agent dose escalation study, three patients each at 180 mg/day, 320 mg/day, 600 mg/day and 800 mg/day, were examined. Collagen Type IV blood levels were determined by an ELISA based assay for each patient at Day 0 (before therapy) and at Day 26 (after treatment). Collagen type IV levels increased on average by 24% at Day 26 in the 180 mg/day cohort; it increased on average only by 7% at Day 26 in the 320 mg/day cohort. In the 600 mg/day cohort, it was reduced on average by 26% at Day 26. In the 800 mg/day cohort, it was reduced only marginally, when compared to the 600 mg/day cohort, by 29% at Day 26.
Collagen type IV ELISA assays were also examined to see if collagen type IV was useful as a biomarker for clinical response to the example VEGFR-2 inhibitor. […] The reduction in collagen type IV blood levels correlated with clinical evidence of anti-tumor activity. […]

Cc1cc2c(F)c(Oc3ncnn4cc(OC[C@@H](C)OC(=O)[C@H](C)N)c(C)c34)ccc2[nH]1 [example VEGFR-2 inhibitor, [(1R),2S]-2-Aminopropionic acid 2-[4-(4-fluoro-2-methyl-1H-indol-5-yloxy)-5-methylpyrrolo[2,1-f][1,2,4]triazin-6-yloxy]-1-methylethyl ester]
IHC staining of Collagen type IV (COL4A1) around tumor blood vessels following treatment [1]: negative or lesser degree of staining
IHC staining of angiotensin receptor-like 1 (AGTRL1) around tumor blood vessels following treatment [2]: negative or lesser degree of staining
IHC staining of C1qR1 around tumor blood vessels following treatment [3]: negative or lesser degree of staining
Collagen type IV levels increased on average by (Collagen type IV; 180 mg/day cohort, three patients, Day 26 vs Day 0): 24%
Collagen type IV levels increased on average by (Collagen type IV; 320 mg/day cohort, three patients, Day 26 vs Day 0): 7%
Collagen type IV levels reduced on average by (Collagen type IV; 600 mg/day cohort, three patients, Day 26 vs Day 0): 26%
Collagen type IV levels reduced by (Collagen type IV; 800 mg/day cohort, three patients, Day 26 vs Day 0): 29%
reduction in collagen type IV levels (Collagen type IV; another patient, 600 mg/day, between Day 0 and Day 26, P=0.632): no significant reduction
collagen type IV blood levels reduced (Collagen type IV; one patient with ampulla of vater carcinoma, 600 mg/day, between Day 0 and Day 26, P=0.006): > 50%
